Here are results for one compound from patent publication US10000500B2 (PROMEGA CORPORATION, priority 2016, dated 2018).

This test addresses NANOLUC® Luciferase (Oplophorus gracilirostris, UniProt Q9GV45, A31E/A60N/A81I/F95D/I117V/K70R/L54V/L99Q/M102K/N193R/P142E/Q151K/Q38R/Q45L/V71I/Y165I). Kind of test: Km and Vmax substrate titration with NanoLuc luciferase (Example 8). The settings on record: NanoLuc 4 ng/ml; Renilla Glo buffer; Michaelis-Menten fit. It is filed as biochemical. The method, then:
Each compound to be screened was diluted to a concentration of 100 uM in Renilla Glo Luciferase Assay buffer (Promega Corporation) and then further diluted to 2×serial dilution in Renilla Glo Luciferase Assay Buffer. NANOLUC® luciferase and Renilla luciferase were diluted to a concentration of 4 ng/ml in OptiMEM+0.1% FBS. 50 ul of each compound dilution was then mixed with 50 ul of each enzyme dilution and incubated for 1 minute at room temperature. Light output for each compound was measured on a GLOMAX®-Multi+ luminometer. Km and Vmax were calculated for each enzyme/substrate combination using a GraphPad Prism Michaelis-Menten non-linear fit (FIGS. 1A-ID).

Chain of NANOLUC® Luciferase (Q9GV45 28-196 with tags or gaps with the stated changes limits assumed): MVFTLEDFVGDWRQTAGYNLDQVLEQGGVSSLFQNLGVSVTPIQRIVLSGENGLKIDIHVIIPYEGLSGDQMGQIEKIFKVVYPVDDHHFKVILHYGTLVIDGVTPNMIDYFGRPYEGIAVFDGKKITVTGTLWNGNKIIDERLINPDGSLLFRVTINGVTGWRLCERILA

As to `O=c1c(Cc2ccco2)nc2c(Cc3ccccc3)[nH]c(-c3ccccc3)cn1-2` [Furimazine, 8-benzyl-2-(furan-2-ylmethyl)-6-phenylimidazo[1,2-a]pyrazin-3(7H)-one], the Km came to 9.37 µM.
